Measurements published in patent US9133492B2, “Kanamycin compound, kanamycin-producing Streptomyces species bacterium, and method of producing kanamycin” (iNtRON Biotechnology, Inc., priority 2010, dated 2015).
In brackets after ≈: the same amount, converted by molar mass. Like-named read-outs stand apart in the source and are kept apart here.

What was measured:
[1] = system: E. coli CCARM 1A020(Kan^S); experiment: MIC by broth microdilution (CLSI), antibacterial spectra; assay type: cell-based, Escherichia coli
Procedure: (§1) In one embodiment of the present invention, antibacterial spectra against kanamycin intermediates and analogs produced by the present invention were measured. Typical gram-negative strains (E. coli and Pseudomonas aeruginosa) and four clinically isolated strains were employed to check the antibacterial spectra (See table 2).
(§2) To check the antibacterial spectra of kanamycin biosynthetic intermediates and their analogs, a total six kinds of Gram-negative bacteria such as kanamycin-sensitive (Kan^S) E. coli ATCC 25922, kanamycin-resistant (Kan^R) Pseudomonas aeruginosa ATCC 27853, Kan^S E. coli CCARM (Culture Collection of Antimicrobial Resistant Microbes, Korea) 1A020, Kan^R E. coli CCARM 1A023, amikacin-sensitive (Amk^S) P. aeruginosa CCARM 2206, and amikacin-resistance (Amk^R) P. aeruginosa CCARM 2178 were used.
(§3) Minimum inhibitory concentrations (MICs) of various kanamycin-related pseudodi- and tri-saccharides and AHBA conjugated kanamycin analogs (except for compounds 16, 18, 19, and 20) were measured by broth microdilution according to the Clinical and Laboratory Standard Institute (CLSI, formerly NCCLS). As described in Example 2, gram-negative E. coli strains, P. aeruginosa strains, and clinically isolated strains were incubated in Mueller-Hinton broth (BD Science) at 30° C. […] An aliquot of water was used as a negative control group. The growth of the strains was observed using the Labsystems Bioscreen C, and the minimum concentrations of the aminoglycoside diluted in the broth medium to inhibit the growth of the bacterial strains were measured.

[2] = system: E. coli CCARM 1A023(Kan^R); experiment: as above; assay type: cell-based, Escherichia coli; conditions: E. coli CCARM 1A023, kanamycin-resistant clinically isolated strain
Procedure: as §1, §2, §3

[3] = system: P. aeruginosa CCARM 2178(Amk^R); experiment: as above; assay type: cell-based, Pseudomonas aeruginosa; conditions: for MIC: P. aeruginosa CCARM 2178, amikacin-resistant clinically isolated strain; for MIC / activity: clinically isolated amikacin-resistant P. aeruginosa strain
Procedure: as §1, §2, §3

[4] = system: P. aeruginosa CCARM 2206(Amk^S); experiment: as above; assay type: cell-based, Pseudomonas aeruginosa; conditions: P. aeruginosa CCARM 2206, amikacin-sensitive clinically isolated strain
Procedure: as §1, §2, §3

[5] = system: Gram-negative bacteria (E. coli and Pseudomonas aeruginosa test strains); experiment: Antibacterial spectra, comparison across test strains; assay type: cell-based
Procedure: as §1, §2, §3

[6] = system: E. coli ATCC 25922(Kan^S); experiment: microbe, parasite or virus in culture; assay type: cell-based, Escherichia coli
Procedure: as §1, §2, §3

[7] = system: P. aeruginosa ATCC 27853(Kan^R); experiment: microbe, parasite or virus in culture; assay type: cell-based; conditions: Pseudomonas aeruginosa, ATCC27853
Procedure: as §1, §2, §3

S. venezuelae = experiment: Resistance of S. venezuelae strains to kanamycin; assay type: cell-based, Streptomyces venezuelae
Procedure: As expected, the recombinant heterologous strain expressing kanA-kanB-kanK (DOS strain) produced compound 1 (21.4 μM) (FIG. 2A). To confer resistance to kanamycin in S. venezuelae without modifying the aminoglycoside structure, three resistance genes gtmF-gtmK-gtmL from the gentamicin gene cluster were introduced into the recombinant heterologous strain. Transformants expressing these genes were resistant to >10.0 mg/ml of the commercially available kanamycin compared to 1.0 μg/ml in control strains. These resistance genes were expressed together with the kanamycin biosynthetic genes in the heterologous host in subsequent experiments.

[8] = E. coli CCARM 1A020, kanamycin-sensitive clinically isolated strain
[9] = E. coli ATCC 25922, kanamycin-sensitive typical strain
[10] = Escherichia coli, read-out: MIC
[11] = Pseudomonas aeruginosa, CCARM2178, read-out: MIC
[12] = Pseudomonas aeruginosa, CCARM2206, read-out: MIC

## NCC1OC(OC2C(N)CC(N)C(O)C2O)C(O)C(O)C1O (stereo not shown) [Compound 10, 2′-deamino-2′-hydroxyneamine]
[1]; [8]
  MIC: 64 µg/mL (≈ 198 µM)
[2]
  MIC: NA (NA represents no activity at 128 μg/mL)
[3]
  MIC: NA (NA represents no activity at 128 μg/mL)
[4]
  MIC: 128 µg/mL (≈ 396 µM)
[5]; against kanamycin-sensitive E. coli strains, compared with 6′-hydroxy derivatives 3 and 9
  antibacterial activity, 6′-amino vs 6′-hydroxy pseudodisaccharides: more active
[6]; [9]
  MIC: 64 µg/mL (≈ 198 µM)

## N[C@@H]1C[C@H](N)[C@@H](O[C@H]2O[C@H](CO)[C@@H](O)[C@H](O)[C@H]2O)C(O)[C@H]1O[C@H]1O[C@H](CO)[C@@H](O)[C@H](O)[C@H]1O (stereo partly shown) [Compound 11, 3″-deamino-3″-hydroxykanamycin X]
[1]; [8]
  MIC: NA (NA represents no activity at 128 μg/mL)
[2]
  MIC: NA (NA represents no activity at 128 μg/mL)
[3]
  MIC: NA (NA represents no activity at 128 μg/mL)
[4]
  MIC: NA (NA represents no activity at 128 μg/mL)

## N[C@@H]1[C@@H](O)[C@@H](O[C@@H]2[C@@H](O)[C@H](O[C@H]3O[C@H](CO)[C@@H](O)[C@H](O)[C@H]3O)[C@@H](N)C[C@H]2N)O[C@H](CO)[C@H]1O [Compound 12, kanamycin X]
[1]; [8]
  MIC: 16 µg/mL (≈ 33 µM)
[2]
  MIC: NA (NA represents no activity at 128 μg/mL)
[3]
  MIC: NA (NA represents no activity at 128 μg/mL)
[4]
  MIC: 64 µg/mL (≈ 132 µM)
[5]; against the test strains, compared with corresponding 3″-hydroxy derivatives 5, 13, 14 and 11
  antibacterial activity, 3″-amino vs 3″-hydroxy derivatives: increased activity
[6]; [9]
  MIC: 16 µg/mL (≈ 33 µM)

## NC[C@H]1O[C@H](O[C@H]2[C@H](O)[C@@H](O[C@H]3O[C@H](CO)[C@@H](O)[C@H](O)[C@H]3O)[C@H](N)C[C@@H]2N)[C@H](N)[C@@H](O)[C@@H]1O [Compound 13, 3″-deamino-3″-hydroxykanamycin B]
[1]; [8]
  MIC: 128 µg/mL (≈ 264 µM)
[2]
  MIC: NA (NA represents no activity at 128 μg/mL)
[3]
  MIC: NA (NA represents no activity at 128 μg/mL)
[4]
  MIC: NA (NA represents no activity at 128 μg/mL)

## NCC[C@H](O)C(=O)N[C@@H]1C[C@H](N)[C@@H](O[C@H]2O[C@H](CN)[C@@H](O)[C@H](O)[C@H]2O)[C@H](O)[C@H]1O[C@H]1O[C@H](CO)[C@@H](O)[C@H](N)[C@H]1O [Compound 15, amikacin, reference compound]
[1]; Escherichia coli
  MIC: 128 µg/mL (≈ 219 µM)
[2]; [10]
  MIC: 32 µg/mL (≈ 54.6 µM)
[7]
  MIC: 64 µg/mL (≈ 109 µM)
[3]; [11]
  MIC: > 128 µg/mL
[3]
  MIC / activity: no activity
[4]; [12]
  MIC: ≤ 0.25 µg/mL
[6]; Escherichia coli, ATCC25922
  MIC: 128 µg/mL (≈ 219 µM)

## NCC[C@H](O)C(=O)N[C@@H]1C[C@H](N)[C@@H](O[C@H]2O[C@H](CO)[C@@H](O)[C@H](O)[C@H]2O)[C@H](O)[C@H]1O[C@H]1O[C@H](CO)[C@@H](O)[C@H](N)[C@H]1O [Compound 17, 1-N-AHBA-kanamycin X]
[1]; Escherichia coli, E. coli CCARM 1A020, kanamycin-sensitive clinically isolated strain, read-out: MIC
  MIC: 32 µg/mL (≈ 54.6 µM)
[2]; [10]
  MIC: 16 µg/mL (≈ 27.3 µM)
[7]
  MIC: 16 µg/mL (≈ 27.3 µM)
[3]; [11]
  MIC: 64 µg/mL (≈ 109 µM)
[3]; amikacin-resistant P. aeruginosa
  antibacterial effect: antibacterial effect
[3]
  MIC / activity: ~64
[4]; [12]
  MIC: 0.25 µg/mL (≈ 0.426 µM)
[5]; against all kanamycin and amikacin-resistant test strains
  antibacterial activity: strong antibacterial activity
[5]; against all the test strains
  antibacterial activity compared with amikacin (compound 15): improved antibacterial activity
[6]; Escherichia coli, ATCC25922
  MIC: 16 µg/mL (≈ 27.3 µM)

## NC[C@H]1O[C@H](O[C@H]2[C@H](O)[C@@H](O[C@H]3O[C@H](CO)[C@@H](O)[C@H](N)[C@H]3O)[C@H](N)C[C@@H]2N)[C@H](O)[C@@H](O)[C@@H]1O [kanamycin]
S. venezuelae; S. venezuelae transformants expressing resistance genes gtmF-gtmK-gtmL
  kanamycin concentration the strain is resistant to: > 10.0 mg/mL
S. venezuelae; control strains
  kanamycin concentration the strain is resistant to: 0.001 mg/mL

## kanamycin D [Compound 14]
[1]; [8]
  MIC: 128 µg/mL
[2]
  MIC: NA (NA represents no activity at 128 μg/mL)
[3]
  MIC: NA (NA represents no activity at 128 μg/mL)
[4]
  MIC: NA (NA represents no activity at 128 μg/mL)
